Data reported in US6541463B1, “Inhibitors of type 5 and type 3 17β-hydroxysteroid dehydrogenase and methods for their use” (Endorecherche, Inc., priority 1998, dated 2003).

Columns and labels:
Format in all cases: biochemical
[1] = target: T1, human type 1 3α-hydroxysteroid dehydrogenase (Homo sapiens, UniProt P17516); test: Enzymatic assay for type 1 3α-HSD; details: Table 4′; for IC50: read-out: Inhibition Type 1 3α-HSD Activity IC50
T1 sequence (P17516 1-323): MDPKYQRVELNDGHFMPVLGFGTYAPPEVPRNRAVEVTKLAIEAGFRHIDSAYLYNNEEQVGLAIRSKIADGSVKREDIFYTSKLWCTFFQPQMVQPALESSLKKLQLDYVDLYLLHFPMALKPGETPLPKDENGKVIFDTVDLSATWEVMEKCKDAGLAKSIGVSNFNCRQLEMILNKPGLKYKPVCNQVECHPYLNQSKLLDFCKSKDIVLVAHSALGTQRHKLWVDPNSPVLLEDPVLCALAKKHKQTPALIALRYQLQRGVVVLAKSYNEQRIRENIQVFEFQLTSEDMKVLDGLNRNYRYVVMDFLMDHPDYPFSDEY
Description: The manner in which IC50 was determined is described in “Efficacy of Preferred Inhibitors: VI. Enzymatic assay for types 1, 2, and 3 17β-HSD and types 1 and 3 3α-HSD”. […] numbers of IC50 are desirable. Blank means that a determination was not done. […]
(§1) Enzyme sources. 293 cells transiently transfected with expression vectors encoding types 1, 2 and 3 17β-HSD (Luu-The et al., J. Steroid Biochem. Molec. Biol., 55: 581-587, 1995), types 1 and 2 5α-reductase (Luu-The et al., J. Invest. Dermatol., 102: 221-226, 1994) and types 1 and 3 3α-HSD (Dufort et al. Biochem. Biophys. Res. Commun. 228: 474-479, 1996), using the calcium phosphate procedure (Kingston et al., In: Current Protocols in Molecular Biology. Edited by E. M. Ausbel, R. Brent, R. E. Kingston, D. D. Moore, J. G. Seidman, J. A. Smith, K. Struhl. John Wiley & Sons, New York, pp. 9.1.1-9.1.9, 1991; Luu-The et al., J. Invest. Dermatol., 102: 221-226, 1994). For assays using cell subfractions, cells were sonicated in 50 mM sodium phosphate buffer (pH 7.4), containing 20% glycerol and 1 mM EDTA and centrifuged at 10 000×g for 30 min before centrifugation for 100 000×g for 1 h to separate the mitochondrial and microsomal fractions, respectively. The cytosol fractions (100 000×g supernatant) was used to determine type 1 activity while the microsomal fraction (pellet at 100 000×g) was used for measurement of types 2 and 3 17β-HSD activities.
(§2) Incubation. The enzymatic reaction was carried out at 37° C. in 1 ml of 50 mM sodium phosphate buffer, pH 7.4, containing 20% glycerol, 1 mM EDTA, and 2 mM cofactors (NADPH or AND^+) for 1 h in the presence of 0.1 μM ^14C-labeled substrate: estrone and 4-dione for types 1 and […] 17β-HSD, respectively, testosterone for type 2 17β-HSD as well as types 1 and 2 5α-reductases, DHT for types 1 and 3 3α-HSD activities, and the indicated concentration of inhibitor.
(§3) Extraction of metabolites, migration on TLC and quantification were as described above for the assay of type 5 17β-HSD.

[2] = target: T2, human type 1 17β-hydroxysteroid dehydrogenase (Homo sapiens, UniProt P14061); test: Enzymatic assay for type 1 17β-HSD; details: for IC50: Table 4′, read-out: Inhibition Type 1 17β-HSD Activity IC50; for inhibition at 3 µM / Inhibition Type 1 17B-HSD Activity [% Inh. at 3 · 10^−6 M]: 3 · 10^−6 M, value in square brackets; for inhibition at 3 µM: read-out: Inhibition Type 1 17B-HSD Activity [% Inh. at 3 · 10^−6 M]
T2 construct: expressed in transfected cells; host or cells: 293 cells, transient transfection; 100 000×g supernatant (cytosol)
T2 sequence (P14061 1-328): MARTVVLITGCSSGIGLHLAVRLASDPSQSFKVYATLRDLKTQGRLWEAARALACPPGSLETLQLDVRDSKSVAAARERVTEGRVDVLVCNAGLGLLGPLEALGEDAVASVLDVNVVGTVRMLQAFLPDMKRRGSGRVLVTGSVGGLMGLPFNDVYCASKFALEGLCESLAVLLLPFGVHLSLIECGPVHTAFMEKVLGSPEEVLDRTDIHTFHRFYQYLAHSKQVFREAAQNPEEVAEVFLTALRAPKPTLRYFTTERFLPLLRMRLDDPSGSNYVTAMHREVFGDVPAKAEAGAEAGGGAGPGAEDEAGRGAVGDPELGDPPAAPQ
Description: (§4) The manner in which IC50 was determined is described in “Efficacy of Preferred Inhibitors: VI. Enzymatic assay for types 1, 2, and 3 17β-HSD and types 1 and 3 3α-HSD”. […] numbers of IC50 are desirable. Blank means that a determination was not done. The % of inhibition at the concentration of 3.10^−6M determined in preliminary screening test is reported in square braquets.
as §1, §2, §3

[3] = target: T3, human type 3 17β-hydroxysteroid dehydrogenase (Homo sapiens, UniProt P37058); test: Enzymatic assay for type 3 17β-HSD; details: for IC50: Table 4′, read-out: Inhibition Type 3 17β-HSD Activity IC50
T3 construct: expressed in transfected cells; host or cells: 293 cells, transient transfection; microsomal fraction (100 000×g pellet)
T3 sequence (P37058 1-310): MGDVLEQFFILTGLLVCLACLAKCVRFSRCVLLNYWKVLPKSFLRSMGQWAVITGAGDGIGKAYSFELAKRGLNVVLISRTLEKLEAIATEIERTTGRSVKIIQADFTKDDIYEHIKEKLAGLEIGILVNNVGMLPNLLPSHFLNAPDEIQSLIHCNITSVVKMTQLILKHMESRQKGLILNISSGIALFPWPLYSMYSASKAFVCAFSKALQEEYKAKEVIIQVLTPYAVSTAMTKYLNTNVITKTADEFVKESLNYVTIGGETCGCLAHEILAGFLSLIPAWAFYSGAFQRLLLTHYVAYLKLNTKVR
Excerpt: Enzymatic assay for types 1, 2, and 3 17β-HSD and types 1 and 3 3α-HSD”. Lower numbers of IC50 are desirable. Blank means that a determination was not done. The % of inhibition at the concentration of 3.10^−6M determined in preliminary screening test is reported in square braquets.
as §1, §2, §3

[4] = target: T4, human type 3 3α-hydroxysteroid dehydrogenase (Homo sapiens, UniProt P52895); test: Enzymatic assay for type 3 3α-HSD; details: Table 4′; read-out: Inhibition Type 3 3α-HSD Activity IC50
T4 construct: expressed in transfected cells; host or cells: 293 cells, transient transfection
T4 sequence (P52895 1-323): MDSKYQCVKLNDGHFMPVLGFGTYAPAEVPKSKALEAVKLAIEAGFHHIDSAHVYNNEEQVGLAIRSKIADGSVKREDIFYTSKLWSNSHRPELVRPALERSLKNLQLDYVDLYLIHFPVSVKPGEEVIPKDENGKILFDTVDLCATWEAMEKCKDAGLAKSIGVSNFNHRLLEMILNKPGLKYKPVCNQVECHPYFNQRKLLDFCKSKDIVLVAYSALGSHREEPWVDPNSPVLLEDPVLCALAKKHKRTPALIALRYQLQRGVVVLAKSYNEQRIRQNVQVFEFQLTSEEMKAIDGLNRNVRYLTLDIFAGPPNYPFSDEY
Description: as §4, §1, §2, §3

| SMILES | IC50 [1] [µM] | IC50 [2] [µM] | IC50 [3] [µM] | IC50 [4] [µM] | inhibition at 3 µM [2] [%] | other results |
| --- | --- | --- | --- | --- | --- | --- |
| COc1ccc2c(c1)C(=O)CC1C2CC[C@@]2(C)C1CC[C@@]21CCC(C)(C)C(=O)O1 (stereo partly shown) [EM-1394] | > 10 | > 10 | > 10 | > 10 | – | – |
| CC1(C)CC[C@@]2(CCC3C4CCc5cc(C(=O)O)ccc5C4CC[C@@]32C)OC1=O (stereo partly drawn) [EM-1401, 3-Carboxy-1,3,5(10)-estratrien-17(R)-spiro-2′-(5′,5′-dimethyl-6′-oxo)tetrahydropyran] | – | > 10 | > 10 | > 10 | – | Inhibition Type 1 3α-HSD Activity [% Inh. at 3 · 10^8M] ([1]; bracketed value, 3 · 10^−6 M): [76] % |
| CCC[C@@H]1CC2C3C=CC4=CC(=O)CC[C@]4(C)C3CC[C@]2(C)C1=O (stereo partly shown) [EM-1097] | – | – | – | – | 64 | inhibition at 3 µM ([3]; 3 · 10^−6 M, value in square brackets, read-out: Inhibition Type 3 17B-HSD Activity [% Inh. at 3 · 10^−6 M]): 82% |
| CC1(C)CCC2(CCC3C4CCc5cc(OS(C)(=O)=O)ccc5C4CCC32C)OC1=O (stereo not shown) [EM-1365-CS] | > 10 | > 10 | > 10 | > 10 | – | – |
| CCC[C@]1(F)CC2C3C=CC4=CC(=O)CC[C@]4(C)C3CC[C@]2(C)C1=O (stereo partly shown) [EM-1183] | – | – | – | – | 34 | – |
| CC1=C[C@@H]2[C@H](CC[C@]3(C)C(=O)C4(CCCCC4)C[C@@H]23)[C@@]2(C)CCC(=O)C=C12 [EM-925] | – | – | – | – | – | Inhibition Type 1 17B-HSD Activity [% Inh. at 3 · 10^−6 M] [2]: [13] % |
| C[C@]12CCC(=O)C=C1C=C[C@@H]1[C@@H]2CC[C@]2(C)C(=O)C3(CC4CC4C3)C[C@@H]12 (stereo partly shown) [EM-1299, 4,6-Androstadien-3,17-dione-16-spirobicyclo[3′.1′.0′]-hexane] | – | – | – | – | – | Inhibition Type 1 17B-HSD Activity [% Inh. at 3 · 10^−6 M] [2]: [49] % |
| COCCOc1cc2c(cc1C#N)C1CC[C@@]3(C)C(CC[C@@]34CCC(C)(C)C(=O)O4)C1CC2 (stereo partly shown) [EM-1396] | > 10 | > 10 | > 10 | > 10 | – | – |
| COCCOc1cc2c(cc1C(=O)OC)C1CC[C@@]3(C)C(CC[C@@]34CCC(C)(C)C(=O)O4)C1CC2 (stereo partly drawn) [EM-1402-CS, 2-Carbomethoxy-3-(2″-methoxyethyloxy)-1,3,5(10)-estratrien 17(R)-spiro-2′-(5′,5′-dimethyl-6′-oxo)tetrahydropyran] | > 10 | > 10 | > 10 | > 10 | – | – |
| CC1(C)CC[C@@]2(CCC3C4CCc5cc(F)ccc5C4CC[C@@]32C)OC1=O (stereo partly shown) [EM-1157-CS] | > 10 | > 10 | > 10 | > 10 | – | – |
| CC12C=CC(=O)C=C1C=CC1C2CCC2(C)C(=O)C3(CCCCC3)CC12 (stereo not shown) [CS-204] | – | – | – | – | 23 | – |
| CC1(C)CC[C@@]2(CCC3C4CCc5cc(C(N)=O)ccc5C4CCC32C)OC1=O (stereo partly shown) [EM-1404] | > 10 | > 10 | > 10 | > 10 | – | – |
| CC(C)C[C@@H]1CC2C3C=CC4=CC(=O)CC[C@]4(C)C3CC[C@]2(C)C1=O (stereo partly shown) [EM-1273-CS] | – | – | – | – | 31 | – |
| COCCOc1cc2c(cc1C(N)=O)C1CC[C@@]3(C)C(CC[C@@]34CCC(C)(C)C(=O)O4)C1CC2 (stereo partly drawn) [EM-1424, 2-Carbamoyl-3-(2″-methoxyethyloxy)-1,3,5(10)-estratrien 17(R)-spiro-2′-(5′,5′-dimethyl-6′-oxo)tetrahydropyran] | > 10 | > 10 | > 10 | > 10 | – | – |
| CCCC(=O)O[C@]1(C)C(=O)CCC2C3C=C(C)C4=CC(=O)CC[C@]4(C)C3CC[C@@]21C (stereo partly shown) [EM-1078] | – | – | – | – | 15 | – |
